Where two headings read alike, the source gives them in different places.
What was measured:
[1] = molecular target: human c-20S β5c (Homo sapiens, UniProt P20618+P28074); assay: Inhibition of human constitutive 20S β5c; type: biochemical; details: read-out: Ki μM β5c; Table 2
[2] = molecular target: human i-20S β5i (Homo sapiens, UniProt P20618+P28062); assay: Inhibition of human immunoproteasome β5i; type: biochemical; details: Table 2
[3] = system: mycobacterial proteasome in M. bovis strain BCG; type: cell-based; details: for protection of mycobacterial proteasome from HT1171: then HT1171 25 μM 1 hour
[4] = molecular target: T1, Mtb20SOG (Mycobacterium tuberculosis, UniProt P9WHT9)
T1 sequence (P9WHT9 58-291): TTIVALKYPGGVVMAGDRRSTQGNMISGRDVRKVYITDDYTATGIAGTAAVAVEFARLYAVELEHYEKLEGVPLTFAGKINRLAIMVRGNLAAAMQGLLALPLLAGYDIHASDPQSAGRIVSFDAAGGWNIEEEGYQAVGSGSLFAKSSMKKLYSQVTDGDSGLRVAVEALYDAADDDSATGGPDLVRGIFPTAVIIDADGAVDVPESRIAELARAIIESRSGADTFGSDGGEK

[5] = molecular target: Mtb20SOG
[6] = molecular target: T1, Mtb20SOG; remark: listed apart in the source
[7] = over 22 hours

Compound	Ki [1] [µM]	Ki(β5i)/Ki(Mtb) [2]	Ki ([2]; read-out: Ki μM β5i) [µM]	protection of mycobacterial proteasome from HT1171 ([3]; DPLG-2 1 μM 4 hours)	protection of mycobacterial proteasome from HT1171 ([3]; DPLG-2 10 μM 4 hours)	protection of mycobacterial proteasome from HT1171 ([3]; DPLG-2 50 μM 4 hours)	increase in potency against Mtb20SOG compared to ML9 [4] [fold]	Ki ([4]; read-out: Ki μM Mtb20SOG) [µM]	Ki(β5c)/Ki(Mtb) [5]	species selectivity for Mtb20SOG over human constitutive proteasome β5 subunit [5] [fold]	apparent kon [6]	dissociation rate constant koff [6] [s⁻¹]	mode of inhibition of Mtb20SOG [6]	Ki ([6]; read-out: Ki^app calculated from koff/kon) [nM]	Ki ([6]; read-out: apparent Ki^app against Mtb20SOG) [nM]	stability in human plasma [7]	inhibition of proteasomes in intact BCG ([3]; HT1171 25 μM, 1 hour, absence of DPLG-2)
CCN(CC)C(=O)C[C@H](NC(=O)CCc1ccccc1)C(=O)N[C@@H](Cc1ccc(F)cc1)C(=O)NCc1cccc2ccccc12 [DPLG-2]	70	3650	54.7	HT1171 inhibited the proteasomes irreversibly	able to shield the mycobacterial proteasome active sites from HT1171	able to shield the mycobacterial proteasome active sites from HT1171	4	0.015	4670	4670	5.7 ± 0.2 × 10^4 M^−1s^−1	0.0015 ± 0.0001	time-dependent manner	26.3	24.2 ± 0.9	stable	–
Cc1sc(-c2nsc(=O)o2)cc1[N+](=O)[O-] [HT1171, reference compound]	–	–	–	–	–	–	–	–	–	–	–	–	–	–	–	–	inhibited the proteasomes irreversibly

From publication PMC3773049 (Journal of the American Chemical Society, 2013)
